Results reported in ChEMBL document CHEMBL4842349, “Enhanced pyrazolopyrimidinones cytotoxicity against glioblastoma cells activated by ROS-Generating cold atmospheric plasma” (Eur J Med Chem, 2021).
Active and inactive are the calls of the source. The rule behind the calls is not given here.

Columns and labels:
U-251 [1] = assay: Cytotoxicity against human U-251MG cells assessed as reduction in cell viability measured after 48 hrs by alamar blue assay; format: functional, cell-based; conditions: U-251, 48 h
U-251 [2] = assay: Cytotoxicity against cold atmospheric plasma (CAP)-treated human U-251MG cells assessed as decrease in cell viability treated with CAP for 30 secs followed by incubated with compound for 48 hrs by alamar blue assay; format: functional, cell-based; conditions: U-251, 48 h
U-251 [3] = assay: Cytotoxicity against human U-251MG cells assessed as reduction in cell viability at 0.3 uM measured after 48 hrs by alamar blue assay relative to control; format: functional
HEK293 [4] = assay: Prodrug activation in human HEK293 cells assessed as enhancement of cytotoxicity at >200 uM combined with 0.5 mM AAPH measured after 48 hrs by Alamar blue assay; format: functional, cell-based; conditions: dose microM >200, time 48.0 hrs
[5] = Prodrug activation in human U-251MG cells assessed as increase in cold atmospheric plasma (CAP) induced ROS-mediated cytotoxicity treated with CAP for 30 secs followed by incubated with compound for 48 hrs by alamar blue assay; format: functional, cell-based; conditions: U-251, 48 h
[6] = Prodrug activation in human U-251MG cells assessed as increase in cold atmospheric plasma (CAP) induced ROS-mediated cytotoxicity treated with CAP for 10 mins in DMSO followed by incubated with compound for 48 hrs by alamar blue assay; format: functional, cell-based
U-251 [7] = assay: Cytotoxicity against human U-251MG cells assessed as decrease in cell viability by measuring combination index treated with cold atmospheric plasma for 20 secs followed by incubated with compound for 48 hrs by alamar blue assay; format: functional
U-251 [8] = assay: Prodrug activation in human U-251MG cells assessed as enhancement of cytotoxicity at >200 uM in presence of 3 mM AAPH measured after 48 hrs by Alamar blue assay; format: functional, cell-based; conditions: dose microM >200, time 48.0 hrs
HEK293 [9] = assay: Prodrug activation in human HEK293 cells assessed as enhancement of cytotoxicity at >200 uM in presence of 3 mM AAPH measured after 48 hrs by Alamar blue assay; format: functional, cell-based; conditions: dose microM >200, time 48.0 hrs
[10] = Prodrug activation in human U-251MG cells assessed as increase in cold atmospheric plasma (CAP) induced ROS-mediated cytotoxicity treated with CAP for 30 secs in DMSO followed by incubated with compound for 48 hrs by alamar blue assay; format: functional, cell-based; conditions: U-251, 48 h
U-251 [11] = assay: Cytotoxicity against human U-251MG cells assessed as reduction in cell viability at 2000 uM measured after 48 hrs by alamar blue assay relative to control; format: functional
U-251 [12] = assay: Cytotoxicity against human U-251MG cells assessed as decrease in cell viability by measuring combination index treated with cold atmospheric plasma for 30 secs followed by incubated with compound for 48 hrs by alamar blue assay; format: functional
[13] = Prodrug activation in human U-251MG cells assessed as increase in cold atmospheric plasma (CAP) induced ROS-mediated cytotoxicity treated with CAP for 40 secs followed by incubated with compound for 48 hrs in presence of NAC by alamar blue assay; format: functional, cell-based; conditions: U-251, 48 h
[14] = Prodrug activation in human HEK293 cells assessed as decrease in cell viability at low concentrations in presence of AAPH measured after 48 hrs by Alamar blue assay; format: functional
[15] = Prodrug activation in human U-251MG cells assessed as increase in cold atmospheric plasma (CAP) induced ROS-mediated cytotoxicity treated with CAP for 20 secs followed by incubated with compound for 48 hrs by alamar blue assay; format: functional, cell-based; conditions: U-251, 48 h
[16] = Prodrug activation in human U-251MG cells assessed as decrease in cell viability at low concentrations in presence of AAPH measured after 48 hrs by Alamar blue assay; format: functional
[17] = Prodrug activation in human U-251MG cells assessed as increase in cold atmospheric plasma (CAP) induced ROS-mediated cytotoxicity treated with CAP for 40 secs followed by incubated with compound for 48 hrs by alamar blue assay; format: functional, cell-based; conditions: U-251, 48 h
U-251 [18] = assay: Cytotoxicity against human U-251MG cells assessed as decrease in live cells stained with green (Calcein-AM) at 0.3 to 2000 uM measured after 48 hrs by Live/dead staining based fluorescent analysis; format: functional, cell-based; conditions: dose 0.3-2000 µM
U-251 [19] = assay: Prodrug activation in human U-251MG cells assessed as enhancement of cytotoxicity at >200 uM combined with 0.5 mMAAPH measured after 48 hrs by Alamar blue assay; format: functional, cell-based; conditions: dose microM >200, time 48.0 hrs
U-251 [20] = assay: Cytotoxicity against human U-251MG cells assessed as reduction in cell viability at 290 uM measured after 48 hrs by alamar blue assay relative to control; format: functional
HEK293 [21] = assay: Cytotoxicity against human HEK293 cells assessed as reduction in cell viability measured after 48 hrs by alamar blue assay; format: functional, cell-based; conditions: HEK293, 48 h
U-251 [22] = assay: Cytotoxicity against human U-251MG cells assessed as increase in dead cells stained with red (EthD-1) at 0.3 to 2000 uM measured after 48 hrs by Live/dead staining based fluorescent analysis; format: functional, cell-based; conditions: dose 0.3-2000 µM
U-251 [23] = assay: Cytotoxicity against human U-251MG cells assessed as decrease in cell viability by measuring combination index treated with cold atmospheric plasma for 40 secs followed by incubated with compound for 48 hrs by alamar blue assay; format: functional
U-251 [24] = assay: Cytotoxicity against human U-251MG cells assessed as distinct morphological changes at 0.3 to 2000 uM measured after 48 hrs by Live/dead staining based fluorescent analysis; format: functional, cell-based; conditions: dose 0.3-2000 µM
U-251 [25] = assay: Prodrug activation in human U-251MG cells assessed as cell cytotoxicity treated with prodrug in overnight storage cold atmospheric plasma (CAP) activated culture medium for 48 hrs by Alamar blue assay; format: functional, cell-based
U-251 [26] = assay: Cytotoxicity against human U-251MG cells assessed as decrease in cell viability by measuring combination index treated with cold atmospheric plasma for 10 secs followed by incubated with compound for 48 hrs by alamar blue assay; format: functional
[27] = Prodrug activation in human U-251MG cells assessed as increase in cold atmospheric plasma (CAP) induced ROS-mediated cytotoxicity treated with CAP for 10 secs followed by incubated with compound for 48 hrs by alamar blue assay; format: functional, cell-based; conditions: U-251, 48 h
U-251 [28] = assay: Prodrug activation in CAP treated human U-251MG cells assessed as cell cytotoxicity incubated with cold atmospheric plasma (CAP) treated culture medium for 0 to 5 hrs followed by incubation with fresh medium containing prodrug for 48 hrs by Alamar blue assay; format: functional, cell-based
U-251 [29] = assay: Cytotoxicity against cold atmospheric plasma (CAP)-treated human U-251MG cells assessed as decrease in cell viability treated with CAP for 15 secs followed by incubated with compound for 6 days by alamar blue assay; format: functional, cell-based; conditions: U-251, 144 h
U-251 [30] = assay: Cytotoxicity against human U-251MG cells assessed as decrease in cell viability incubated for 6 days by alamar blue assay; format: functional, cell-based; conditions: U-251, 144 h
U-251 [31] = assay: Cytotoxicity against cold atmospheric plasma (CAP)-treated human U-251MG cells assessed as decrease in cell viability treated with CAP for 30 secs followed by incubated with compound for 6 days by alamar blue assay; format: functional, cell-based; conditions: U-251, 144 h
U-251 [32] = assay: Prodrug activation in human U-251MG cells assessed as enhancement of cytotoxicity pretreated with prodrug followed by cold atmospheric plasma (CAP) treatment for 10 to 40 sec in culture medium and measured after 48 hrs by alamar blur assay; format: functional, cell-based

SMILES: COc1ccc(-c2cc(=O)n3nc(C(C)C)cc3[nH]2)cc1
- IC50 (U-251 [1]): 197 µM
- IC50 (U-251 [2]): 127 µM

SMILES: Cc1c(-c2ccccc2)[nH]c2cc(C(C)C)nn2c1=O
- IC50 (U-251 [1]): 137 µM
- IC50 (U-251 [2]): 86.3 µM

SMILES: Cc1cc2[nH]c(-c3ccccc3)cc(=O)n2n1
- IC50 (U-251 [1]): 293 µM
- Activity (U-251 [3]): 100%
- Activity (HEK293 [4]): inactive
- IC50 [5]: 39.2 µM
- IC50 [6]: 246 µM
- CI (U-251 [7]): 0.3352
- Activity (U-251 [8]): inactive
- Activity (HEK293 [9]): inactive
- IC50 [10]: 215 µM
- Activity (U-251 [11]): 10%
- CI (U-251 [12]): 0.4756
- IC50 [13]: 95.7 µM
- Activity [14]: 50%
- IC50 [15]: 31.1 µM
- Activity [16]: 50%
- IC50 (U-251 [2]): 56.8 µM
- IC50 [17]: 37.1 µM
- Activity (U-251 [18]): Active
- Activity (U-251 [19]): inactive
- Activity (U-251 [20]): 50%
- IC50 (HEK293 [21]): 123 µM
- Activity (U-251 [22]): Active
- CI (U-251 [23]): 0.578
- Activity (U-251 [24]): Active
- Activity (U-251 [25]): inactive
- CI (U-251 [26]): 0.311
- IC50 [27]: 54.4 µM
- Activity (U-251 [28]): inactive

SMILES: Cn1nnc2c(C(N)=O)ncn2c1=O [TEMOZOLOMIDE]
- IC50 (U-251 [29]): 7.28 µM
- IC50 (U-251 [30]): 12.7 µM
- IC50 (U-251 [31]): 6.43 µM

SMILES: CC(C)c1cc2[nH]c(-c3ccc([N+](=O)[O-])cc3)cc(=O)n2n1
- IC50 (U-251 [1]): 25.5 µM
- IC50 (U-251 [2]): 12.9 µM

SMILES: CC(C)(C)c1cc2[nH]c(-c3cc(C(F)(F)F)cc(C(F)(F)F)c3)cc(=O)n2n1
- IC50 (U-251 [1]): 367 µM
- IC50 (U-251 [2]): 462 µM

SMILES: O=c1cc(-c2ccccc2)[nH]c2cc(-c3ccccc3)nn12
- IC50 (U-251 [1]): 77.7 µM
- IC50 (U-251 [2]): 73.6 µM

SMILES: Cc1cc(C)cc(-c2cc(=O)n3nc(C(C)C)cc3[nH]2)c1
- IC50 (U-251 [1]): 502 µM
- IC50 (U-251 [2]): 609 µM

SMILES: CCCCc1cc2[nH]c(-c3cc(C(F)(F)F)cc(C(F)(F)F)c3)cc(=O)n2n1
- IC50 (U-251 [1]): 11.3 µM
- IC50 (U-251 [2]): 11.4 µM

SMILES: Cc1cc(C)cc(-c2cc(=O)n3nc(C)cc3[nH]2)c1
- Activity (U-251 [32]): inactive

SMILES: CC(C)(C)c1cc2[nH]c(C(C)(C)C)cc(=O)n2n1
- IC50 (U-251 [1]): 941 µM
- IC50 (U-251 [2]): 62.4 µM

SMILES: COc1ccc(-c2cc(=O)n3nc(-c4ccccc4)cc3[nH]2)cc1
- IC50 (U-251 [1]): 13.4 µM
- IC50 (U-251 [2]): 5670 µM

SMILES: Cc1ccc(-c2cc3[nH]c(-c4ccccc4)cc(=O)n3n2)cc1
- IC50 (U-251 [1]): 148 µM
- IC50 (U-251 [2]): 86.7 µM

SMILES: O=c1cc(-c2ccccc2)[nH]c2cc(-c3cccc(Cl)c3)nn12
- IC50 (U-251 [1]): 23.3 µM
- IC50 (U-251 [2]): 38.2 µM

SMILES: O=c1cc(-c2ccccc2)[nH]c2cc(-c3ccc(F)cc3)nn12
- IC50 (U-251 [1]): 74.6 µM
- IC50 (U-251 [2]): 44.4 µM

SMILES: CC(C)c1cc2[nH]c(-c3cc(C(F)(F)F)cc(C(F)(F)F)c3)cc(=O)n2n1
- IC50 (U-251 [1]): 42.9 µM
- IC50 (U-251 [2]): 19 µM
